Converted amounts (≈) assume the structure as drawn.
Assays:
Assay type in all cases: cell-based
[1] = test system: human immunodeficiency virus (LAVBRU strain); assay: anti-HIV XTT assay in infected CEM-SS cells; conditions: for anti-HIV activity (in words): XTT assay (FIGS. 4, 6, 7); for EC50: infected CEM-SS cells, XTT assay, day 7 post-infection, viable cells increased to 50% of uninfected control, NA = Not active at concentrations up to 500 µM, read-out: ED50 (the source's name); for SI: Selectivity Index: Ratio of TD50 to ED50, CEM-SS cells, 10080 min
Procedure: (§1) Compounds were evaluated for activity against human immunodeficiency virus (LAVBRU strain obtained from Luc Montagnier, Institut Pasteur, Paris, France) in CEM-SS cells (P. L. Nara et al., in AIDS Res. Human. Retroviruses, 1987, 3, 283-302) or in MT-4 cells (S. Harada, et al., in Science, 1985, 229, 563-566) using the XTT assay described by O. S. Weislow et al., in J. Natl. Cancer Instit., 1989, 81, 577-586. CEM-SS cells were obtained from Owen Weislow at the National Cancer Institute, and MT-4 cells were obtained from Doug Richman at the University of California at San Diego. Cells were exposed to HIV and cultured in microtiter plates in the presence of test compounds at concentrations of 0.0013, 0.0064, 0.032, 0.16, 0.8, 4, 20, 100, and 500 »M. On day 7 post-infection, the antiviral effect was measured using the XTT assay in which an optical density (OD) reading is obtained at each drug concentration. The optical density reading is proportional to the number of viable cells. Assays run in infected cells show the antiviral effect of the test compounds, where an increase in the number of viable cells (higher OD reading) reflects the protective, antiviral activity of the compound. Assays run in uninfected cells provide a measure of cellular toxicity. The antiviral effect is also expressed (see Table 2) as the concentration of compound which increases the number of viable cells in infected cultures to 50%, that of the untreated, uninfected control cultures (ED₅₀). The cellular toxicity is expressed as the concentration of compound which reduces the number of viable cells to 50%, that of the untreated control (TD₅₀). The selectivity index (SI) is the ratio of TD₅₀ to ED₅₀. The anti-HIV activity and cellular toxicity of the test compounds are plotted in FIGS. 1-7 as a function of optical density verus increasing log concentrations of the test compounds (XTT assay).

in vitro [2] = conditions: human, cem-ss cells
Procedure: as §1

[3] = test system: herpes simplex virus Type 2 (HSV-2); assay: plaque reduction assay, HSV-2 in vero cells; conditions: Human alphaherpesvirus 2, G strain, 48 hour incubation
Procedure: (§2) The compounds were evaluated for antiviral activity in vitro by the standard plaque reduction assay. Experiments were conducted with vero cells (African Green Monkey Kidney cells) infected with herpes simplex virus Type 1 (HSV-1) [BW^s strain, C. D. Sibrack et al., Infect. Dis., 1982, 146, 673] and herpes simplex virus Type 2 (HSV-2) [G strain, obtained from American Tissue Culture Collection, Rockville, MD] and with MRC-5 cells (human embryonic lung (diploid) cells) infected with human cytomegalovirus (HCMV) [AD169 strain, obtained from American Tissue Culture Collection, Rockville, MD]. Briefly, confluent cell monolayers in 24-well plates were infected with 30-50 plaque-forming units of virus in 100 »l of phosphate-buffered saline. After a 1 hour adsorption period, residual inoculum was replaced with 1 mL of the appropriate dilution of the test compound which had been freshly prepared in Eagle's minimal essential medium (EMEM) containing 10% fetal bovine serum. After a 48 hour incubation period at 37°C in a 5% CO₂ atmosphere, cell monolayers were fixed and stained with Carbol fuchsin and plaques were counted. The antiviral potency of the compound was determined by IC₅₀, the inhibitory concentration necessary to reduce the number of plaques by 50% of those in the virus control cultures.

[4] = test system: human cytomegalovirus (HCMV); assay: plaque reduction assay, HCMV in MRC-5 cells; conditions: Human betaherpesvirus 5, MRC5, AD169 strain
Procedure: as §2

[5] = test system: herpes simplex virus Type 1 (HSV-1); assay: plaque reduction assay, HSV-1 in vero cells; conditions: Human alphaherpesvirus 1, BW^s strain, 48 hour incubation
Procedure: as §2

[6] = test system: human immunodeficiency virus (LAVBRU strain); assay: anti-HIV XTT assay in infected MT-4 cells; conditions: MT4 cells, XTT assay (FIG. 2)
Procedure: as §1, with “The antiviral effect is also expressed (see Table 2) as the concentration of compound which increases the number of viable cells in infected cultures to 50%, that of the untreated, uninfected control cultures (ED₅₀). The cellular toxicity is expressed as the concentration of compound which reduces the number of viable cells to 50%, that of the untreated control (TD₅₀). The selectivity index (SI) is the ratio of TD₅₀ to ED₅₀. The anti-HIV activity and cellular toxicity of the test compounds are plotted in FIGS. 1-7 as a function of optical density verus increasing log concentrations of the test compounds (XTT assay).” left out

CEM-SS cells = assay: in vitro
Procedure: as §1

in vitro [7] = conditions: human, mt-4 cells
Procedure: as §1, with “The antiviral effect is also expressed (see Table 2) as the concentration of compound which increases the number of viable cells in infected cultures to 50%, that of the untreated, uninfected control cultures (ED₅₀). The cellular toxicity is expressed as the concentration of compound which reduces the number of viable cells to 50%, that of the untreated control (TD₅₀). The selectivity index (SI) is the ratio of TD₅₀ to ED₅₀. The anti-HIV activity and cellular toxicity of the test compounds are plotted in FIGS. 1-7 as a function of optical density verus increasing log concentrations of the test compounds (XTT assay).” left out

[8] = Human immunodeficiency virus 1, 168 h

Structure (SMILES)	IC50 [3] [µg/mL]	IC50 [5] [µg/mL]	MCC at 168 h (in vitro [7]) [nM]	MNTC (in vitro [2]) [µM]	MNTC at 168 h (in vitro [7]) [µM]	anti-HIV activity (in words) ([1]; CEM-SS cells)	CC50 (in vitro [2]) [µM]	IC50 [4] [µg/mL]	EC50 [1, 8] [µM]	SI [1]	anti-HIV effect (in words) [6]	cytotoxicity relative to (R)-2'-methyl-PMEG (CEM-SS cells)	CC50 (CEM-SS cells; human, cem-ss cells) [µM]	EC100 ([1]; Human immunodeficiency virus 1, 168 h, CEM-SS cells, XTT assay (FIGS. 3, 5), read-out: concentration giving complete protection from HIV) [µM]
Nc1nc2c(ncn2C[C@@H](CO)OCP(=O)(O)O)c(=O)[nH]1 [(S)-HPMPG, (S)-9-[3-hydroxy-2-(phosphonomethoxy)propyl]guanine]	31 (≈ 97.1 µM)	8 (≈ 25.1 µM)	–	–	–	clearly inactive	350	0.9 (≈ 2.82 µM)	–	–	–	–	–	–
Nc1nc2c(ncn2CCOCP(=O)(O)O)c(=O)[nH]1 [PMEG, 9-[2-(phosphonomethoxy)ethyl]guanine]	0.31 (≈ 1.07 µM)	0.09 (≈ 0.311 µM)	> 100	–	–	some anti-HIV effect	–	< 0.1	0.2	30	no anti-HIV effect can be measured	approximately 30 fold	15	–
Nc1nc2c(ncn2C[C@H](CO)OCP(=O)(O)O)c(=O)[nH]1 [(R)-HPMPG, (R)-9-[3-hydroxy-2-(phosphonomethoxy)propyl]guanine]	32 (≈ 100 µM)	32 (≈ 100 µM)	–	–	–	clearly inactive	> 500	0.5 (≈ 1.57 µM)	500	>1	–	–	–	–

The next lines start with results.

IC50 [3] [µg/mL]	IC50 [5] [µg/mL]	MCC at 168 h (in vitro [7]) [nM]	MNTC (in vitro [2]) [µM]	MNTC at 168 h (in vitro [7]) [µM]	Structure (SMILES)	anti-HIV activity (in words) ([1]; CEM-SS cells)	CC50 (in vitro [2]) [µM]	IC50 [4] [µg/mL]	EC50 [1, 8] [µM]	SI [1]	anti-HIV effect (in words) [6]	cytotoxicity relative to (R)-2'-methyl-PMEG (CEM-SS cells)	CC50 (CEM-SS cells; human, cem-ss cells) [µM]	EC100 ([1]; Human immunodeficiency virus 1, 168 h, CEM-SS cells, XTT assay (FIGS. 3, 5), read-out: concentration giving complete protection from HIV) [µM]
25 (≈ 82.4 µM)	–	–	< 100	< 100	C[C@H](Cn1cnc2c(=O)[nH]c(N)nc21)OCP(=O)(O)O [(R)-2'-methyl-PMEG, (R)-9-[2-(phosphonomethoxy)propyl]guanine]	active	> 500	5 (≈ 16.5 µM)	1	–	–	–	–	–
25 (≈ 82.4 µM)	–	–	< 100	–	C[C@@H](Cn1cnc2c(=O)[nH]c(N)nc21)OCP(=O)(O)O [(S)-2'-methyl-PMEG, (S)-9-[2-(phosphonomethoxy)propyl]guanine]	active	300	5 (≈ 16.5 µM)	12	25	–	–	–	100

Reference: patent EP0452935B1, “Chiral 2-(phosphonomethoxy)propyl guanines as antiviral agents” (INSTITUTE OF ORGANIC CHEMISTRY AND BIOCHEMISTRY OF THE …, priority 1990, dated 1991)
